Patent US6790862B2 (priority 1999, dated 2004)
In brackets after ≈: the same amount, converted by molar mass. Where two headings read alike, the source gives them in different places.

Assays:
[1] = indirect, fragment-based computational calculation; cited from earlier work
HL-60 cells = experiment: MTT cell proliferation assay; type: cell-based, human; conditions: for IC50: Homo sapiens
Procedure: (§1) Tumorigenic and non-tumorigenic cell lines were cultured as previously described in Hood K. A., West L. M., Northcote P. T., Berridge M. V., Miller J. H., Apoptosis (2001), 6, 207-219. These cell lines included HL-60 and KS62, two tumorigenic human myeloid leukemic cell lines, 32D clone 3 (32D), a non-tumorigenic murine myeloid cell line, 32D-ras, the ras-transformed derivative of 32D, H441, a human lung adenocarcinoma cell line, SH-SY5Y, a human neuroblastoma cell line, and LLC-PK1, a non-tumorigenic pig kidney cell line. IC50 values for Peloruside A in the different cell lines were determined using the tetrazolium-based MTT cell proliferation assay as previously described (Hood K. A et al.).

b-tubulin in HL-60 cells = experiment: in situ tubulin polymerization, immunoblot of soluble and particulate fractions; type: cell-based, human; conditions: 5 h; for effect on proportion of soluble to polymerized tubulin: HL-60, different concentrations; for b-tubulin remaining in the soluble fraction: HL-60, 100 nM
Text: A simple in situ cellular assay as described by Giannakakou P., Gussio R., Nogales E., Downing K. H., Zaharevitz D., Bollbuck B., Poy G., Sackett D., Nicolaou K. C., Fojo T., Proc. Nat. Acad. Sci. (USA) (2000), 97, 2904-2909 was used in which the shift in tubulin from depolymerized to polymerized forms was followed by electrophoresis and Western blotting of centrifuged particulate and cytosolic fractions. To summarize, 2×10^6 untreated and drug-exposed HL-60 cells were lysed by exposure for 5 min at 37° C. to […] of hypotonic buffer (1 mM MgCl2, 2 mM EGTA, 1% Nonidet P-40, 2 mM phenylmethylsulfonyl fluoride, 1 mg/mL aprotinin, 2 mg/mL pepstatin, and 20 mM Tris-HCl, pH 6.8) and the particulate fraction separated from the soluble cytosolic fraction by high speed centrifugation for 10 min in a bench-top centrifuge. Samples labeled ‘0 min’ received drug immediately before collection of the cells. The processing of the cells to the critical centrifugation step required approximately 30 min. The pellet was dissolved in […] of sample buffer (8 M urea, 4% CHAPS, 3 M thiourea, and 40 mM DTT). Twenty mL of loading buffer was added to each […] sample, the samples were vortexed and then boiled for 5 min. Twenty mL of each sample was loaded on an SDS/10% polyacrylamide gel and resolved by electrophoresis. b-Tubulin bands were identified by Western blotting using b-tubulin primary antibody ( 1/1000 dilution) following standard immunoblotting procedures with detection by enhanced chemiluminescence (Lumi-Light, Roche).
Scale bar (lower right)=500 nm.

[2] = tested on: SH-SY5Y (human neuroblastoma); experiment: MTT cytotoxicity assay, 96 hours exposure; type: cell-based
Procedure: (§2) The cytotoxicity of Peloruside A was tested in five cell lines:
SH-SY5Y (human neuroblastoma)
(§3) 32D (murine myeloid) generally in accordance with the MTT assay of Burres et al., J. Cancer Research (1989), 49, 2935-2940.
(§4) Briefly, cell lines were maintained in Dulbecco's modified Eagle's medium: F12 medium (50:50) (Gibco) supplemented with 10% fetal calf serum (Gibco), […] Penicillin G, and […] streptomycin sulfate. After 96 hours exposure to the toxin, cell viability was determined by the MTT calorimetric assay. […] Data were analysed with the SYSTAT statistical program using a non-linear model fit, and IC50 values were calculated using a Logit-Log plot.

[3] = tested on: different cell lines (H441, SY5Y, HL-60, 32D-ras, 32D, LLC-PK1); experiment: MTT cell proliferation assay in the different cell lines; type: cell-based; conditions: 96 h; 4-day exposure
Procedure: as §1

K562 cells = experiment: cellular morphology; type: cell-based, human; conditions: K562, 2 days exposure, 100 nM
H441 cells [4] = experiment: cellular morphology, phase-contrast microscopy; type: cell-based, human; conditions: for treated cells with intracellular fiber bundles: H441, 48 h; for treated cells with intracellular fiber bundles / micronuclei: 100 nM; for micronuclei: H441, 2 days exposure; for intracellular fiber bundles: H441, phase-contrast microscopy
Procedure: Phase-contrast photomicrographs of H441 human lung adenocarcinoma cells: untreated control cells (A) and cells exposed for 48 h to 100 nM Peloruside A (B) or 100 nM paclitaxel (C). Note the intracellular fiber bundles in approximately 10% of the treated cells and the numerous micronuclei, each with a dark central spot of condensed DNA. Scale bar=[…].

HeLa cells = experiment: anti-metabolic activity, WST-1 reduction; type: cell-based; parameters: stimulation of WST-1 reduction: dose or concentration left out as unconfirmed
Procedure: (§5) The effect of Peloruside A and paclitaxel on superoxide production was determined using human peripheral blood neutrophils activated with […] N-formyl-met-leu-phe (fMLP) as described previously (Tan A. S., Berridge M. V., J. Immunol. Meth. (2000), 238, 59-68). In this microplate assay, the cell-impermeable tetrazolium salt, WST-1, is reduced to its soluble formazan and dye reduction measured at 450 nm as an initial rate over 10-20 min. Samples were equilibrated with cells for 3 min at 37° C. and the reaction initiated by adding fMLP. Measurement of anti-metabolic activity followed a similar microplate protocol except that HeLa cells were used instead of neutrophils, cells were not activated with fMLP, and the intermediate electron acceptor, 1-methoxy phenazine methosulfate at 25 mM, was included in the WST-1 reagent to facilitate detection of low potential electrons from the plasma membrane.

[5] = tested on: H441 (human lung adenocarcinoma); experiment: MTT cytotoxicity assay, 96 hours exposure; type: cell-based; conditions: for nuclei break up into small vessicles (nuclear blebbing): H441, comparators at their respective LD50s
Procedure: as §2
H441 (human lung adenocarcinoma)
as §3, §4

purified tubulin = experiment: in vitro tubulin polymerization and electron microscopy; type: biochemical; parameters: polymerization of purified tubulin in solution: dose or concentration left out as unconfirmed; conditions: for polymerization of purified tubulin in solution: 30 min, 37° C., electron microscopy; for stability of induced microtubules: at 0C
Procedure: Purified tubulin (approximately 7.5 mg protein) containing approximately 15% microtubule-associated proteins was obtained from Sigma and reconstituted in 0.1 M MES buffer, pH 6.8, 1 mM EGTA, 0.1 mM EDTA, 0.5 mM MgCl2, 1 mM DTT, 0.1 mM GTP, 1 mg/mL leupeptin, 1 mg/mL aprotinin, and 100 mg/mL sucrose as stabilizer. The reconstituted tubulin was incubated at 37° C. for 30 min in the presence of […] Peloruside A or […] paclitaxel. Samples […] were pipetted onto 400-mesh carbon- and Formvar-coated copper grids and left for 2 min at RT before blotting with filter paper. Each grid was stained with 5 mL of 1% uranyl acetate for 3 min at RT, then blotted with filter paper. Grids were air-dried overnight before examination in a Philips CM100 transmission electron microscope.
(B) Immunoblots following exposure to […] Peloruside A and […] paclitaxel for varying lengths of time. (C) Transmission electron micrograph of microtubules formed following treatment of purified soluble tubulin with […] Peloruside A for 30 min at 37° C. Scale bar (lower right)=500 nm.

H441 cells [6] = experiment: cell cycle by flow cytometry (PI) and mitotic index; type: cell-based, human; parameters: metaphase-arrested cells (mitotic index): dose or concentration left out as unconfirmed; conditions: H441, 24 h
Procedure: Using standard methodology, the DNA of cells was stained with propidium iodide (PI), and the proportion of cells in different phases of the cell cycle was monitored by flow cytometry. Briefly, H441 cells were treated with […] for 24 h. Adherent cells were collected by trypsinization and added to those in suspension. The cells were then fixed with cold 70% ethanol overnight and stained with PI solution consisting of 45 mg/mL PI, 10 mg/mL RNaseA, and 0.1% glucose. After a 2 h incubation at RT, samples were analysed in a FACSort flow cytometer (Becton Dickinson).
Cells were treated with […] Peloruside A or paclitaxel, stained with PI, and counted by flow cytometry. For the mitotic index, cells were treated for 24 h with different concentrations of Peloruside A or paclitaxel, and the number of cells in mitosis divided by the total number of cells (n=at least 400 cells counted in each of 3 preparations).

P388 (murine leukemia) = experiment: MTT cytotoxicity assay, 96 hours exposure; type: cell-based; conditions: P388, 96 hours exposure
Procedure: as §2, §3, §4

LLC-PK1 (pig kidney) = experiment: MTT cytotoxicity assay, 96 hours exposure; type: cell-based; conditions: LLC-PK1, 96 hours exposure
Procedure: as §2, §3, §4

[7] = tested on: P388 (Murine Leukemia) cells; experiment: anti-tumor assay, P388 cell growth, MTT; type: cell-based; conditions: Mus musculus, 72 hours incubation, read-out: cytotoxic to P388 murine leukemia cells (IC50)
Procedure: The bioactivity of peloruside A as an anti-tumor agent was determined by an anti-tumor assay. For the anti-tumor assay a 2-fold dilution series of the same of interest is incubated for 72 hours with P388 (Murine Leukemia) cells. The concentration of sample required to reduce the P388 cell growth by 50% (comparative to control cells) is determined using the absorbance values obtained with the yellow dye MTT tetrazollum is reduced by healthy cells to the purple colour MTT formazan. The result is expressed as an IC50 in ng/mL.

32D (murine myeloid) = experiment: MTT cytotoxicity assay; type: cell-based
Procedure: as §2, §3
as §4, with “After 96 hours exposure to the toxin, cell viability was determined by the MTT calorimetric assay.” left out

[8] = lipophilicity by thin layer chromatography; type: physicochemical
[9] = tested on: human peripheral blood neutrophils; experiment: fMLP-activated respiratory burst, superoxide production (WST-1); type: cell-based; parameters: dose or concentration left out as unconfirmed
Procedure: as §5

| Compound | IC50 (HL-60 cells; HL-60) [nM] | effect on proportion of soluble to polymerized tubulin (b-tubulin in HL-60 cells) | micronuclei (K562 cells) | treated cells with intracellular fiber bundles (H441 cells [4]) | micronuclei (H441 cells [4]) | intracellular fiber bundles (H441 cells [4]) | nuclei break up into small vessicles (nuclear blebbing) [5] | polymerization of purified tubulin in solution (purified tubulin) | stability of induced microtubules (purified tubulin) | cell cycle arrest (H441 cells [6]) | metaphase-arrested cells (mitotic index) (H441 cells [6]) [%] | b-tubulin remaining in the soluble fraction (b-tubulin in HL-60 cells) | other results |
| --- | --- | --- | --- | --- | --- | --- | --- | --- | --- | --- | --- | --- | --- |
| C=C/C=C\[C@H](C)[C@H](OC(N)=O)[C@@H](C)[C@H](O)[C@@H](C)C/C(C)=C\[C@H](C)[C@@H](O)[C@@H](C)/C=C\[C@@H](O)C[C@@H]1OC(=O)[C@H](C)[C@@H](O)[C@H]1C [Discodermolide, discodermolide] | – | – | – | – | – | – | – | – | – | – | – | – | solubility relative to paclitaxel [1]: 160 fold |
| CCC(/C=C(/C)C1C[C@H](OC)C[C@@H](O)C(C)(C)C(O)C(O)C(OC)C[C@H](O)C[C@H](OC)[C@@H](O)C(=O)O1)CO (stereo partly drawn) [Peloruside A reduction product] | 221 ± 24 | no significant effect | – | – | – | – | – | – | – | – | – | – | increase of IC50 relative to Peloruside A (HL-60 cells; HL-60 cells): 31 fold |
| CCC(/C=C(/C)C1C[C@H](OC)C[C@@H](O)C(C)(C)[C@]2(O)OC(CC(OC)C2O)C[C@H](OC)[C@@H](O)C(=O)O1)CO (stereo partly drawn) [Peloruside A] | 7 ± 4 | dose-dependent shifts of soluble tubulin to the particulate fraction | multiple micronuclei were observed | approximately 10% | multiple micronuclei were observed | large intracellular fiber bundles were observed | nuclei of the cells were observed to break up into small vessicles | polymerize in solution into typical, long, straight microtubules | stable | partial cell cycle arrest at G2/M | 34±2 | No detectable b-tubulin remained in the soluble fraction | retraction of dendrites [2]: no retraction of dendrites was observed; LD50 ([2]; 96 hours exposure): 14.9 nM; IC50 [3]: 4 to 15 nM; stimulation of WST-1 reduction (HeLa cells): 20%; LD50 ([5]; H441, 96 hours exposure): 6.2 nM; LD50 (P388 (murine leukemia)): 18 nM; LD50 (LLC-PK1 (pig kidney)): 3.7 nM; IC50 [7]: ~0.01 µg/mL (≈ 0.0182 µM); LD50 (32D (murine myeloid); 96 hours exposure): 0.0078 µM; LD50 (32D (murine myeloid); viability at 24 hours of exposure): 1600 µM; lipophilicity [8]: less lipophilic than paclitaxel |
| C=C1C[C@](OC)([C@H](O)C(=O)N[C@H]2OCO[C@H]3[C@@H]2O[C@H](C[C@H](O)CO)C(C)(C)[C@@H]3OC)O[C@H](C)[C@@H]1C [mycalamide A, reference compound] | – | – | – | – | – | – | not been observed | – | – | – | – | – | – |
| CC(=O)O[C@H]1C(=O)[C@@]2(C)[C@H]([C@H](OC(=O)c3ccccc3)[C@]3(O)C[C@H](OC(=O)[C@H](O)[C@@H](NC(=O)c4ccccc4)c4ccccc4)C(C)=C1C3(C)C)[C@]1(OC(C)=O)CO[C@@H]1C[C@@H]2O [paclitaxel, Paclitaxel, reference compound] | – | dose-dependent shifts of soluble tubulin to the particulate fraction | multiple micronuclei were observed | approximately 10% | multiple micronuclei were observed | large intracellular fiber bundles were observed | – | polymerize in solution into typical, long, straight microtubules | stable | partial cell cycle arrest at G2/M | 64±4 | No detectable b-tubulin remained in the soluble fraction | effect on WST-1 reduction (HeLa cells; 12-24 mM): little effect; IC50 (HL-60 cells; HL-60 cells, ± S.E.M., read-out: IC50): 22 ± 8 nM; effect on neutrophil activation [9]: no effect |
| pateamine [reference compound] | – | – | – | – | – | – | not been observed | – | – | – | – | – | – |
